Measured values published in patent publication US20160151318A1, “USE OF NITRATED LIPIDS FOR TREATMENT OF LIPID DISORDERS AND OBESITY, AND LIPID- AND OBESITY-RELATED CONDITIONS” (THE UNIVERSITY OF UTAH RESEARCH FOUNDATION, priority 2008, published 2016).

Legend:
Zucker obese rats = experiment: Chronic infusion of OA-NO2 or OA in Zucker obese rats (obesity, hyperlipidemia, kidney injury); format: in vivo, rat; conditions: 7.5 μg/kg/day via osmotic mini-pump; for reduction of proteinuria (urinary protein excretion): 24-hour urine (FIG. 7); for plasma free fatty acid levels (non-esterified fatty acid): fasted (FIG. 3B); for plasma cholesterol levels: fasted (FIG. 4); for plasma HDL levels: fasted (FIG. 5A); for body weight gain: male 4-mo-old Zucker obese rats, vs. vehicle control (FIG. 1)
Description: Male 4-month-old Zucker obese and Zucker diabetic rats were from Charles River Laboratory (Wilmington, Mass.). All animals were housed in an air-conditioned room with a 12-hour light/dark cycle. All procedures and protocols were in accordance with guidelines set by the Laboratory Animal Care Committee at the University of Utah. Two strains of Zucker rats, obese and diabetes (ZDF) (Charles River), were treated with vehicle (ethanol), OA-NO2 at 7.5 μg/kg/d, or OA at 7.5 μg/kg/d via an osmotic mini-pump. Under isoflurane anesthesia, the mini-pump was implanted under the skin of the neck area. Body weight, food intake, and collections of blood and urine samples were determined before and after treatment. Animals were fasted from 6:00 pm to 9:00 am before blood sampling. Blood sampling was conducted by making a small cut (˜2 mm) in the tail using razor blade. 24-hour urine was collected using metabolic cages. Adult Zucker obese rats develop severe obesity and hyperlipidemia but are relatively resistant to diabetes. Therefore, these animals were used for testing the weight-loss and lipid lowering effects of OA-NO2. To determine whether these effects are directly attributable to the nitration of the fatty acid, the parent fatty acid (OA) was used as a control. Starting from 4 mo of age, Zucker obese rats were chronically infused for 2 weeks with vehicle, OA-NO2 (9-nitrooleic acid and 10-nitrooleic acid are purchased from Cayman Chemical, Ann Arbor, MI and used as an 1:1 mixture), or OA each at 7.5 μg/kg/day via an osmotic mini-pump. Parameters including body weight, food intake, the lipid profile, oxidative stress, and urinary protein excretion were determined. Animals were fasted from 6:00 pm to 9:00 am before blood sampling.

Zucker diabetic rats = experiment: Chronic infusion of OA-NO2 in Zucker diabetic rats (ZDF strain); format: in vivo, rat; conditions: 7.5 μg/kg/d via osmotic mini-pumps, 1 week, fasted
Description: Male 4-month-old Zucker obese and Zucker diabetic rats were from Charles River Laboratory (Wilmington, Mass.). All animals were housed in an air-conditioned room with a 12-hour light/dark cycle. All procedures and protocols were in accordance with guidelines set by the Laboratory Animal Care Committee at the University of Utah.
Two strains of Zucker rats, obese and diabetes (ZDF) (Charles River), were treated with vehicle (ethanol), OA-NO2 at 7.5 μg/kg/d, or OA at 7.5 μg/kg/d via an osmotic mini-pump. Under isoflurane anesthesia, the mini-pump was implanted under the skin of the neck area. Body weight, food intake, and collections of blood and urine samples were determined before and after treatment. Animals were fasted from 6:00 pm to 9:00 am before blood sampling. Blood sampling was conducted by making a small cut (˜2 mm) in the tail using razor blade. 24-hour urine was collected using metabolic cages.
To evaluate the efficacy of OA-NO2 for treatment of diabetes, Zucker diabetic rats were used. These animals develop severe hyperglycemia and hyperinsulinemia, the two major parameters of type 2 diabetes.

Row | Compound | reduction of proteinuria (urinary protein excretion) (Zucker obese rats; Zucker obese rats, 2 weeks) | plasma free fatty acid levels (non-esterified fatty acid) (Zucker obese rats; Zucker obese rats, 2 weeks) | plasma cholesterol levels (Zucker obese rats; Zucker obese rats, 2 weeks) | plasma HDL levels (Zucker obese rats; Zucker obese rats, 2 weeks) | body weight gain (Zucker obese rats; 2 weeks) | plasma TBARS (index of systemic oxidative stress), increase in obese vs. lean rats (Zucker obese rats; Zucker obese rats, 2 weeks (FIG. 6)) | plasma triglyceride (Zucker obese rats; Zucker obese rats, 2 weeks, fasted, vs. vehicle control (FIG. 3A)) | food intake (Zucker obese rats; Zucker obese rats, 2 weeks, vs. vehicle (FIG. 2)) | hyperglycemia (plasma glucose) (Zucker diabetic rats; vs. Day 0 (FIG. 8A)) | plasma insulin levels (Zucker diabetic rats; vs. Day 0 (FIG. 8B))
1 | CCCCCCCC/C=C\CCCCCCCC(=O)O [OA, Oleic acid, reference compound] | no significant effect | lack of an effect | unaffected | ineffective | not different | – | – | – | – | –
2 | nitrooleic acid [OA-NO2] | 50% | almost completely normalized | unaffected | significantly increased | less than that in the vehicle control | significantly attenuated | significant triglyceride-lowering effect | significantly reduced | significantly attenuated | tended to reduce
